Molecular target: T1, STAMBP (purified, recombinant) (Homo sapiens, UniProt O95630)
T1 construct: commercial purified recombinant STAMBP (R&D Systems E-548B)
T1 sequence (O95630 1-424): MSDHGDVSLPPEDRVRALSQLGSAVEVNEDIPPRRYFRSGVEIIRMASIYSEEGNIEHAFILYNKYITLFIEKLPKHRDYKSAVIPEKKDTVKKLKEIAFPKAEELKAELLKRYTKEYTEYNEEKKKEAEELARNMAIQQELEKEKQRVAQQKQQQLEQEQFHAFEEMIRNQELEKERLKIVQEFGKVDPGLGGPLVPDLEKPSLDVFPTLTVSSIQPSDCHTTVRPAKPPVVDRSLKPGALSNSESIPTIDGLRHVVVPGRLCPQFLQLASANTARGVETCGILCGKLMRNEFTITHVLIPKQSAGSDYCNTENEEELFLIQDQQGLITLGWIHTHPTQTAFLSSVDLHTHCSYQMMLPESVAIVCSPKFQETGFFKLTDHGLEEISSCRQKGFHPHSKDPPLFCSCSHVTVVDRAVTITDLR
Assay: in vitro DUB assay, cleavage of K63-linked di-ubiquitin to mono-Ub, immunoblot
Type: biochemical
Conditions: 200 nM K63-linked di-Ub, 25 nM STAMBP, pH 7.5, 37 °C, 2 h; competitive

- IC50: 330 nM
Substance: BC-1471

— PMC5437278, “Targeting the deubiquitinase STAMBP inhibits NALP7 inflammasome activity” (Nature Communications, 2017)
